Source: ChEMBL document CHEMBL4665869, “New thiazolopyrimidine as anticancer agents: Synthesis, biological evaluation, DNA binding, molecular modeling and ADMET study” (Bioorg Med Chem Lett, 2020)
≈ marks a conversion by molar mass, not a printed value.

Tests used:
U-251 = assay: Growth inhibition of human U-251 cells at 10 uM relative to control; format: functional; conditions: read-out: GI
SK-MEL-2 = assay: Growth inhibition of human SK-MEL-2 cells at 10 uM relative to control; format: functional; conditions: read-out: GI
RXF 393 = assay: Growth inhibition of human RXF 393 cells at 10 uM relative to control; format: functional; conditions: read-out: GI
IGROV-1 = assay: Growth inhibition of human IGROV-1 cells at 10 uM relative to control; format: functional; conditions: read-out: GI
UACC-62 = assay: Growth inhibition of human UACC-62 cells at 10 uM relative to control; format: functional; conditions: read-out: GI
BT-549 = assay: Growth inhibition of human BT-549 cells at 10 uM relative to control; format: functional; conditions: read-out: GI
MOLT-4 = assay: Growth inhibition of human MOLT-4 cells at 10 uM relative to control; format: functional; conditions: read-out: GI
A498 = assay: Growth inhibition of human A498 cells at 10 uM relative to control; format: functional; conditions: read-out: GI
786-0 = assay: Growth inhibition of human 786-0 cells at 10 uM relative to control; format: functional; conditions: read-out: GI
HOP-62 = assay: Growth inhibition of human HOP-62 cells at 10 uM relative to control; format: functional; conditions: read-out: GI
HCC 2998 = assay: Growth inhibition of human HCC 2998 cells at 10 uM relative to control; format: functional; conditions: read-out: GI
KM12 = assay: Growth inhibition of human KM12 cells at 10 uM relative to control; format: functional; conditions: read-out: GI
SF-539 = assay: Growth inhibition of human SF-539 cells at 10 uM relative to control; format: functional; conditions: read-out: GI
SN12C = assay: Growth inhibition of human SN12C cells at 10 uM relative to control; format: functional; conditions: read-out: GI
K562 = assay: Growth inhibition of human K562 cells at 10 uM relative to control; format: functional; conditions: read-out: GI
HCT-15 = assay: Growth inhibition of human HCT-15 cells at 10 uM relative to control; format: functional; conditions: read-out: GI
MCF7 = assay: Growth inhibition of human MCF7 cells at 10 uM relative to control; format: functional; conditions: read-out: GI
NCI-H460 = assay: Growth inhibition of human NCI-H460 cells at 10 uM relative to control; format: functional; conditions: read-out: GI
TK-10 = assay: Growth inhibition of human TK-10 cells at 10 uM relative to control; format: functional; conditions: read-out: GI
MDA-MB-435 = assay: Growth inhibition of human MDA-MB-435 cells at 10 uM relative to control; format: functional; conditions: read-out: GI
SF-268 = assay: Growth inhibition of human SF-268 cells at 10 uM relative to control; format: functional; conditions: read-out: GI
COLO 205 = assay: Growth inhibition of human COLO 205 cells at 10 uM relative to control; format: functional; conditions: read-out: GI
MDA-MB-468 = assay: Growth inhibition of human MDA-MB-468 cells at 10 uM relative to control; format: functional; conditions: read-out: GI
NCI-H226 = assay: Growth inhibition of human NCI-H226 cells at 10 uM relative to control; format: functional; conditions: read-out: GI
A549 = assay: Growth inhibition of human A549 cells at 10 uM relative to control; format: functional; conditions: read-out: GI
SF-295 = assay: Growth inhibition of human SF-295 cells at 10 uM relative to control; format: functional; conditions: read-out: GI
SNB-75 = assay: Growth inhibition of human SNB-75 cells at 10 uM relative to control; format: functional; conditions: read-out: GI
CAKI-1 = assay: Growth inhibition of human CAKI-1 cells at 10 uM relative to control; format: functional; conditions: read-out: GI
SNB-19 = assay: Growth inhibition of human SNB-19 cells at 10 uM relative to control; format: functional; conditions: read-out: GI
OVCAR-8 = assay: Growth inhibition of human OVCAR-8 cells at 10 uM relative to control; format: functional; conditions: read-out: GI
UACC-257 = assay: Growth inhibition of human UACC-257 cells at 10 uM relative to control; format: functional; conditions: read-out: GI
ACHN = assay: Growth inhibition of human ACHN cells at 10 uM relative to control; format: functional; conditions: read-out: GI
HCT-116 = assay: Growth inhibition of human HCT-116 cells at 10 uM relative to control; format: functional; conditions: read-out: GI
NCI-H522 = assay: Growth inhibition of human NCI-H522 cells at 10 uM relative to control; format: functional; conditions: read-out: GI
Malme-3M = assay: Growth inhibition of human Malme-3M cells at 10 uM relative to control; format: functional; conditions: read-out: GI
MDA-MB-231 = assay: Growth inhibition of human MDA-MB-231 cells at 10 uM relative to control; format: functional; conditions: read-out: GI
DNA = assay: Displacement of methyl green from DNA (unknown origin) assessed as DNA intercalation after 24 hrs by colorimetric assay; format: nucleic-acid assay
CCRF-CEM = assay: Growth inhibition of human CCRF-CEM cells at 10 uM relative to control; format: functional; conditions: read-out: GI
HOP-92 = assay: Growth inhibition of human HOP-92 cells at 10 uM relative to control; format: functional; conditions: read-out: GI
SK-MEL-5 = assay: Growth inhibition of human SK-MEL-5 cells at 10 uM relative to control; format: functional; conditions: read-out: GI
UO-31 = assay: Growth inhibition of human UO-31 cells at 10 uM relative to control; format: functional; conditions: read-out: GI
M14 = assay: Growth inhibition of human M14 cells at 10 uM relative to control; format: functional; conditions: read-out: GI
DU-145 = assay: Growth inhibition of human DU-145 cells at 10 uM relative to control; format: functional; conditions: read-out: GI
T47D = assay: Growth inhibition of human T47D cells at 10 uM relative to control; format: functional; conditions: read-out: GI
HL-60(TB) = assay: Growth inhibition of human HL-60(TB) cells at 10 uM relative to control; format: functional; conditions: read-out: GI
NCI-H322M = assay: Growth inhibition of human NCI-H322M cells at 10 uM relative to control; format: functional; conditions: read-out: GI
RPMI-8226 = assay: Growth inhibition of human RPMI-8226 cells at 10 uM relative to control; format: functional; conditions: read-out: GI
PC-3 = assay: Growth inhibition of human PC-3 cells at 10 uM relative to control; format: functional; conditions: read-out: GI
HT-29 = assay: Growth inhibition of human HT-29 cells at 10 uM relative to control; format: functional; conditions: read-out: GI
Hs-578T = assay: Growth inhibition of human Hs-578T cells at 10 uM relative to control; format: functional; conditions: read-out: GI
LOX IMVI = assay: Growth inhibition of human LOX IMVI cells at 10 uM relative to control; format: functional; conditions: read-out: GI
SK-MEL-28 = assay: Growth inhibition of human SK-MEL-28 cells at 10 uM relative to control; format: functional; conditions: read-out: GI
SW-620 = assay: Growth inhibition of human SW-620 cells at 10 uM relative to control; format: functional; conditions: read-out: GI
OVCAR-5 = assay: Growth inhibition of human OVCAR-5 cells at 10 uM relative to control; format: functional; conditions: read-out: GI
OVCAR-4 = assay: Growth inhibition of human OVCAR-4 cells at 10 uM relative to control; format: functional; conditions: read-out: GI
SK-OV-3 = assay: Growth inhibition of human SK-OV-3 cells at 10 uM relative to control; format: functional; conditions: read-out: GI
SR = assay: Growth inhibition of human SR cells at 10 uM relative to control; format: functional; conditions: read-out: GI
NCI-H23 = assay: Growth inhibition of human NCI-H23 cells at 10 uM relative to control; format: functional; conditions: read-out: GI
NCI/ADR-RES = assay: Growth inhibition of human NCI/ADR-RES cells at 10 uM relative to control; format: functional; conditions: read-out: GI

CCOC(=O)C1=CSC2=NC(/C=C/c3ccc(OC)c(OC)c3)=CC(c3ccc(OC)c(OC)c3)N12 (centres undefined)
inhibition of growth at 10 µM (U-251): < 10% | inhibition of growth at 10 µM (SK-MEL-2): < 10% | inhibition of growth at 10 µM (RXF 393): < 10% | inhibition of growth at 10 µM (IGROV-1): < 10% | inhibition of growth at 10 µM (UACC-62): < 10% | inhibition of growth at 10 µM (BT-549): < 10% | inhibition of growth at 10 µM (MOLT-4): < 10% | inhibition of growth at 10 µM (A498): < 10% | inhibition of growth at 10 µM (786-0): < 10% | inhibition of growth at 10 µM (HOP-62): < 10% | inhibition of growth at 10 µM (HCC 2998): < 10% | inhibition of growth at 10 µM (KM12): < 10% | inhibition of growth at 10 µM (SF-539): < 10% | inhibition of growth at 10 µM (SN12C): < 10% | inhibition of growth at 10 µM (K562): < 10% | inhibition of growth at 10 µM (HCT-15): < 10% | inhibition of growth at 10 µM (MCF7): < 10% | inhibition of growth at 10 µM (NCI-H460): < 10% | inhibition of growth at 10 µM (TK-10): < 10% | inhibition of growth at 10 µM (MDA-MB-435): < 10% | inhibition of growth at 10 µM (SF-268): < 10% | inhibition of growth at 10 µM (COLO 205): < 10% | inhibition of growth at 10 µM (MDA-MB-468): < 10% | inhibition of growth at 10 µM (NCI-H226): < 10% | inhibition of growth at 10 µM (A549): < 10% | inhibition of growth at 10 µM (SF-295): < 10% | inhibition of growth at 10 µM (SNB-75): 25.3% | inhibition of growth at 10 µM (CAKI-1): < 10% | inhibition of growth at 10 µM (SNB-19): < 10% | inhibition of growth at 10 µM (OVCAR-8): < 10% | inhibition of growth at 10 µM (UACC-257): < 10% | inhibition of growth at 10 µM (ACHN): 12.8% | inhibition of growth at 10 µM (HCT-116): < 10% | inhibition of growth at 10 µM (NCI-H522): 12% | inhibition of growth at 10 µM (Malme-3M): < 10% | inhibition of growth at 10 µM (MDA-MB-231): < 10% | IC50 (DNA): 29.86 µg/mL (≈ 58.7 µM) | inhibition of growth at 10 µM (CCRF-CEM): < 10% | inhibition of growth at 10 µM (HOP-92): 39.5% | inhibition of growth at 10 µM (SK-MEL-5): < 10% | inhibition of growth at 10 µM (UO-31): 20.2% | inhibition of growth at 10 µM (M14): < 10% | inhibition of growth at 10 µM (DU-145): < 10% | inhibition of growth at 10 µM (T47D): < 10% | inhibition of growth at 10 µM (HL-60(TB)): < 10% | inhibition of growth at 10 µM (NCI-H322M): < 10% | inhibition of growth at 10 µM (RPMI-8226): < 10% | inhibition of growth at 10 µM (PC-3): 11.3% | inhibition of growth at 10 µM (HT-29): < 10% | inhibition of growth at 10 µM (Hs-578T): < 10% | inhibition of growth at 10 µM (LOX IMVI): < 10% | inhibition of growth at 10 µM (SK-MEL-28): < 10% | inhibition of growth at 10 µM (SW-620): < 10% | inhibition of growth at 10 µM (OVCAR-5): < 10% | inhibition of growth at 10 µM (OVCAR-4): < 10% | inhibition of growth at 10 µM (SK-OV-3): < 10% | inhibition of growth at 10 µM (SR): < 10% | inhibition of growth at 10 µM (NCI-H23): < 10% | inhibition of growth at 10 µM (NCI/ADR-RES): < 10%
